In US20020197561A1, “Optical data carrier comprising a cyclizable compound in the information layer” (priority 2001, published 2002):

Tests used:
Format in all cases: physicochemical
[1] = cyclization temperature Tcyc by Differential Thermal Analysis (DTA); conditions: for cyclization temperature Tcyc: determined using DTA; for Tcyc: table, DTA
Experimental: The cyclization temperature Tcyc is determined, for example, by means of Differential Thermal Analysis DTA. In the case of the preferred exothermic cyclization, it corresponds to the maximum of the rearrangement signal. The heating rate in the DTA measurements is, for example, 10° C. per minute. Under these conditions, the width at half height of the rearrangement signal is preferably less than 10° C., particularly preferably less than 7° C., very particularly preferably less than 5° C. For the purposes of the invention, the width at half height is the width of the signal at a height halfway between the base and the apex.
cyclization temperature Tcyc: 123° C. (determined using DTA, see description. This also applies to the other examples).

[2] = absorption spectra measured in solution (λmax, ε, shift Δλmax after thermal cyclization); parameters: λmax: unit: nm (local absorption maximum, 350–470 nm range); Δλmax: unit: nm; negative = hypsochromic shift; conditions: for absorption shift after cyclization Δλmax: after thermal cyclization, negative = hypsochromic; for Δλmax: shift after thermal cyclization; for λmax: solvent not given
Text: Preference is given to dyes in which the shift in the absorption maximum induced by thermal cyclization, Δλmax, is 25 nm or more, preferably ≧35 nm, in particular ≧45 nm. If a preferably hypsochromic shift occurs, then Δλmax is negative. For the purposes of the invention, the absorption maximum is the local maximum in the range from 350 to 470 nm; it is not necessarily the absolute maximum in the UV/VIS spectrum in the range from 190 to 800 nm.
The light-absorbent compounds preferably have a molar extinction coefficient ε of >20 000 l/mol cm, preferably >30 000 l/mol cm, particularly preferably >40 000 l/mol cm, very particularly preferably >50 000 l/mol cm, at the absorption maximum λmax.
The absorption spectra are, for example, measured in solution.

[3] = solubility in TFP (2,2,3,3-tetrafluoropropanol)
[4] = film formed by the dye (spin coating)
Text: Apart from the abovementioned optical properties, the writeable information layer comprising light-absorbent organic substances has to have a substantially amorphous morphology to keep the noise signal during writing or reading as small as possible. For this reason, it is particularly preferred that crystallization of the light-absorbent substances be prevented in the application of the substances by spin coating from a solution, by vapour deposition and/or sublimation during subsequent covering with metallic or dielectric layers under reduced pressure.
(§1) A 2% strength by weight solution of the dye in 2,2,3,3-tetrafluoropropanol was prepared at room temperature. This solution was applied by means of spin coating to a fused silica substrate. The resulting thickness of the dye film was about 150 nm. This specimen was heated from 50° C. to 133° C. in a stream of helium at a mean heating rate of 3 K/min and subsequently cooled to 81° C. at a mean cooling rate of 1.4 K/min. During the heating and cooling phases, transmission spectra of the specimen in the wavelength range from 200 nm to 1700 nm were recorded. The change in the optical properties resulting from the ring-closure reaction can be observed by looking at the transmission spectra at different temperatures.

[5] = index of refraction of spin-coated dye film over temperature cycle
Experimental: as §1
The absorption band in the region of 450 nm obviously disappears virtually completely and leads to a change in the absorption properties which can be utilized in the wavelength range from 400 to 500 nm for the optical storage and reproduction of data, for example when a laser beam having an appropriate pulse duration and pulse energy heats the dye layer to above 133° C. Furthermore, each absorption also produces a dispersion of the index of refraction over the wavelength. This leads, in particular on the flanks of the absorption bands, to indices of refraction which are lower (short wavelength flank) or higher (long wavelength flank) than 1.4-1.6, which represents the usual range for colourless organic materials. For example, the index of refraction of the dye at 405 nm is 1.17 at the beginning of the temperature cycle and that at 515 nm is […]. After the temperature cycle, when the absorption band has disappeared virtually completely, the decolourized dye has an index of refraction in the range from 1.4 to 1.6 in the visible spectrum. This change in the index of refraction can likewise be utilized for the optical storage and reproduction of data, for example when a laser beam having an appropriate pulse duration and pulse energy heats the dye layer to above 133° C. […]

[6] = molar extinction coefficient at λmax

Compound	cyclization temperature Tcyc [1]	absorption shift after cyclization Δλmax [2]	λmax (methanol) [2]	ε [2, 6]	solubility [3]	film [4]	index of refraction ([5]; after the temperature cycle (50 to 133° C.), visible spectrum, decolourized dye)	index of refraction ([5]; at 405 nm, beginning of the temperature cycle, about 150 nm film on fused silica)	index of refraction ([5]; at 515 nm, beginning of the temperature cycle)	Tcyc [1]	ε ([2]; table)	Δλmax ([2]; table)	λmax ([2]; table)
CCOC(=O)/C(C#N)=C/C=C1\NCCc2cc(OC)c(OC)cc21 [Example 1]	123 °C	−49 nm	447 nm	47 560 l/mol cm	> 2%	glass-like film	1.4-1.6	1.17	2.17	–	–	–	–
CCc1ccc2c(NC(C)C)c(/C=C\C(=O)OC)c(=O)oc2c1 [Example 3]	206 °C	−20 nm	359 nm	20 700 l/mol cm	1%	glass-like film	–	–	–	–	–	–	–
CCCCNC1=C(/C=C(/C#N)C(=O)OCC)CCC1 [Example 4]	198 °C	−72 nm	441 nm	36 910 l/mol cm	> 2%	glass-like film	–	–	–	–	–	–	–
CCOC(=O)/C(C#N)=C/C=C1\NCCc2ccccc21 [Example 5]	–	–	–	–	–	–	–	–	–	124 °C	53 320	−46	440
CCC1Cc2cc(OC)ccc2/C(=C/C=C(\C#N)C(=O)OCCOC)N1 (centres unmarked) [Example 8]	–	–	–	–	–	–	–	–	–	212 °C	37 520	−50	444
CCOC(=O)/C(C#N)=C/C(C#N)=C1\NC(CC)Cc2cc(N(C)C)ccc21 (centres unmarked) [Example 9]	–	–	–	–	–	–	–	–	–	207 °C	63 160	−53	452
Cc1ccc(N/C=C\c2c(C#N)c(=O)oc3ccccc23)cc1C [Example 11]	–	–	–	–	–	–	–	–	–	157 °C	30 820	>|100|*	467
CCc1ccc(N/C=C(/Br)c2c(C#N)c(=O)[nH]c3ccc(CC)cc23)cc1 [Example 12]	–	–	–	–	–	–	–	–	–	161 °C	32 140	>|100|*	463
CCCCN/C=C\c1c(C(=O)OC(C)C)c(=O)oc2cc(OC)c(OC)cc12 [Example 13]	–	–	–	–	–	–	–	–	–	81 °C	24 580	−50	422
Cc1ccc(S(=O)(=O)OCc2c(/C=C\NC3CCCCC3)c3ccccc3oc2=O)cc1 [Example 14]	–	–	–	–	–	–	–	–	–	175 °C	21 750	−15	368
N#Cc1c(/C=C\Nc2ccccc2)c2ccc(-n3nccn3)cc2oc1=O [Example 15]	–	–	–	–	–	–	–	–	–	146 °C	38 540	>|100|*	468
COc1ccc(Nc2c(C=C(C#N)C#N)c(=O)oc3ccccc23)cc1OC [Example 16]	–	–	–	–	–	–	–	–	–	167 °C	26 670	−38	386
CCOC(=O)/C(C#N)=C/C1=C(Nc2ccc(OC)cc2)CCCC1 [Example 17]	–	–	–	–	–	–	–	–	–	176 °C	33 200	−65	445
CCCCNC1=C(C=C(C#N)C#N)CCC1 [Example 18]	–	–	–	–	–	–	–	–	–	174 °C	37 840	−70	440
